Laboratory results published in the supplement of paper PMC10307832.

How the values were obtained:
Assay in all cases: relative viability (nuclei count vs DMSO), 5 days (fraction); higher = more cells survive
[1] = compound: CCn1c(-c2nonc2N)nc2c(C#CC(C)(C)O)ncc(OC[C@H]3CCCNC3)c21 + CCNC(=O)c1noc(-c2cc(C(C)C)c(O)cc2O)c1-c1ccc(CN2CCOCC2)cc1 [Luminespib] (partner 0.01 µM)
Method in brief: (§1)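 Medians of duplicate plates are given as relative viability. That measure is the nuclei count in treated wells divided by the count in vehicle wells. Counts were taken on 4× images of lung cancer cell lines in 1536-well plates, 5 days after pin-tool dosing the day after seeding with one drug alone or a fixed anchor-drug dose plus five library-drug doses (not always all listed) in √10 steps.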

[2] = compound: CCn1c(-c2nonc2N)nc2c(C#CC(C)(C)O)ncc(OC[C@H]3CCCNC3)c21 + CC1(C)CCC(c2ccc(Cl)cc2)=C(CN2CCN(c3ccc(C(=O)NS(=O)(=O)c4ccc(N[C@H](CCN5CCOCC5)CSc5ccccc5)c(S(=O)(=O)C(F)(F)F)c4)cc3)CC2)C1 [Navitoclax] (partner 0.5 µM)
Method in brief: as §1

[3] = compound: CCn1c(-c2nonc2N)nc2c(C#CC(C)(C)O)ncc(OC[C@H]3CCCNC3)c21 + Cc1nc(Nc2ncc(C(=O)Nc3c(C)cccc3Cl)s2)cc(N2CCN(CCO)CC2)n1 [Dasatinib] (partner 0.075 µM)
Method in brief: as §1

[4] = compound: CCn1c(-c2nonc2N)nc2c(C#CC(C)(C)O)ncc(OC[C@H]3CCCNC3)c21 + NC(=O)Nc1cc(-c2cccc(F)c2)sc1C(=O)N[C@H]1CCCNC1 [AZD7762] (partner 0.2 µM)
Method in brief: as §1

Cell Line | relative viability ([1]; first compound 0.01 µM) | relative viability ([1]; first compound 0.03162 µM) | relative viability ([1]; first compound 0.1 µM) | relative viability ([1]; first compound 0.3162 µM) | relative viability ([1]; first compound 1 µM) | relative viability ([2]; first compound 0.01 µM) | relative viability ([2]; first compound 0.03162 µM) | relative viability ([2]; first compound 0.1 µM) | relative viability ([2]; first compound 0.3162 µM) | relative viability ([2]; first compound 1 µM) | relative viability ([3]; first compound 0.01 µM) | relative viability ([3]; first compound 0.03162 µM) | relative viability ([3]; first compound 0.1 µM) | relative viability ([3]; first compound 0.3162 µM) | relative viability ([3]; first compound 1 µM) | relative viability ([4]; first compound 0.01 µM) | relative viability ([4]; first compound 0.03162 µM) | relative viability ([4]; first compound 0.1 µM) | relative viability ([4]; first compound 0.3162 µM) | relative viability ([4]; first compound 1 µM)
LC-2-ad | 0.964 | 0.967 | 1.1 | 1.04 | 0.974 | 0.56 | 0.417 | 0.579 | 0.419 | 0.487 | 0.384 | 0.487 | 0.509 | 0.414 | 0.641 | 0.86 | 0.874 | 0.885 | 0.839 | 0.867
LCLC-97TM1 | 0.707 | 0.914 | 0.609 | 0.658 | 0.741 | – | 0.337 | 0.475 | 0.641 | 0.328 | 0.799 | 0.982 | 0.803 | 0.739 | 0.845 | 0.279 | 0.269 | 0.206 | 0.292 | 0.294
LK-2 | 0.168 | 0.177 | – | – | 0.14 | 0.787 | 0.927 | 0.77 | 0.872 | 0.889 | 0.252 | 0.275 | – | – | 0.406 | 0.457 | 0.446 | 0.291 | 0.339 | 0.303
LOU-NH91 | 0.34 | 0.365 | 0.374 | 0.319 | 0.316 | 0.691 | 0.709 | 0.697 | 0.632 | 0.572 | 0.564 | 0.575 | 0.543 | 0.537 | 0.337 | 0.78 | 0.693 | 0.755 | 0.689 | 0.68
LU99A | 0.254 | 0.21 | 0.239 | 0.307 | 0.248 | 0.714 | 0.959 | 0.841 | 0.776 | 0.807 | 0.499 | 0.508 | 0.662 | 0.51 | 0.451 | 0.345 | 0.363 | 0.379 | 0.297 | 0.378
LXF-289 | 0.604 | 0.822 | 0.627 | 0.617 | 0.701 | 0.978 | 0.949 | 0.935 | 0.886 | 0.926 | 0.249 | 0.223 | 0.205 | 0.234 | 0.187 | 1.2 | 1.15 | 1.11 | 1.06 | 1.1
NCI-H23 | 0.235 | 0.202 | 0.242 | 0.219 | 0.237 | 0.782 | 0.807 | 0.868 | 0.794 | 0.833 | 0.798 | 0.631 | 0.795 | 1.05 | 0.884 | 0.222 | 0.268 | 0.228 | 0.208 | 0.265
NCI-H322M | 0.784 | 0.847 | 0.855 | 0.665 | 0.682 | 1.25 | 1.27 | 1.17 | 1.13 | 1.23 | 0.246 | 0.233 | 0.245 | 0.264 | 0.271 | 0.591 | 0.661 | 0.562 | 0.516 | 0.625
NCI-H441 | 0.434 | 0.312 | 0.349 | 0.379 | 0.367 | 0.48 | 0.626 | 0.591 | 0.65 | 0.556 | 0.585 | 0.593 | 0.499 | 0.637 | 0.505 | 1.11 | 1.17 | 1 | 0.988 | 1.1
NCI-H460 | 0.0307 | 0.0313 | 0.0273 | 0.031 | 0.0375 | 1.1 | 1.17 | 1.13 | 1.05 | 1.19 | 0.526 | 0.461 | 0.533 | 0.45 | 0.516 | 0.633 | 0.649 | 0.575 | 0.636 | 0.618
NCI-H596 | 1.06 | 1.13 | 1.17 | 0.935 | 1.13 | 0.914 | 0.96 | 0.934 | 1 | 0.938 | 0.641 | 0.67 | 0.563 | 0.48 | 0.554 | 1.18 | – | 1.12 | 1.21 | 1.06
NCI-H647 | 0.327 | 0.177 | 0.203 | 0.127 | 0.193 | 1.16 | 0.96 | 1.14 | 1.08 | 1.14 | 0.193 | 0.224 | 0.184 | 0.152 | 0.164 | 0.433 | 0.437 | 0.45 | 0.423 | 0.486
NCI-H727 | 0.324 | 0.621 | 0.311 | 0.313 | 0.389 | 0.387 | 0.376 | 0.563 | 0.373 | 0.418 | 0.399 | 0.422 | 0.353 | 0.373 | 0.459 | 0.586 | 0.6 | 0.768 | 0.631 | 0.576
NCI-H838 | 0.309 | 0.308 | 0.296 | 0.227 | 0.304 | 1.15 | 1.22 | 1.2 | 1.03 | 1.19 | 0.29 | 0.267 | 0.283 | 0.296 | 0.279 | 0.957 | 1.02 | 0.988 | 0.855 | 0.9
NCI-H1355 | 0.716 | 0.688 | 0.746 | 0.695 | 0.693 | 1 | 0.819 | 1.02 | 0.882 | 0.969 | 0.64 | 0.66 | 0.738 | 0.682 | 0.755 | 0.768 | 0.762 | 0.827 | 0.625 | 0.743
NCI-H1395 | 0.78 | 0.705 | 0.546 | 0.596 | 0.695 | 1.04 | 1.14 | 1.11 | 1.08 | 0.882 | 0.448 | 0.387 | 0.395 | 0.393 | 0.386 | 0.379 | 0.329 | 0.433 | 0.368 | 0.389
